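These data come from cells grown in 96-well plates and exposed to compound for 48 hours at five concentrations. Here, GI50 denotes the concentration required for 50% inhibition of growth. At the TGI there is no net growth.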
Assays:
Test in all cases: NCI anticancer screen, dose series, 48 h
[1] = test system: 786-0 renal
[2] = test system: A498 renal
[3] = test system: A549 NSCLC
[4] = test system: ACHN renal
[5] = test system: BT-549 breast
[6] = test system: CAKI-1 renal
[7] = test system: CCRF-CEM leukemia
[8] = test system: COLO 205 colon
[9] = test system: DU-145 prostate
[10] = test system: EKVX NSCLC
[11] = test system: HCC-2998 colon
[12] = test system: HCT-116 colon
[13] = test system: HL-60(TB) leukemia
[14] = test system: HOP-62 NSCLC
[15] = test system: HS 578T breast
[16] = test system: HT29 colon
[17] = test system: K-562 leukemia
[18] = test system: KM12 colon
[19] = test system: LOX IMVI melanoma
[20] = test system: M14 melanoma
[21] = test system: MCF7 breast
[22] = test system: MDA-MB-231 breast
[23] = test system: MDA-MB-435
[24] = test system: MOLT-4 leukemia
[25] = test system: NCI-H226 lung
[26] = test system: NCI-H23 lung
[27] = test system: NCI-H460 lung
[28] = test system: NCI-H522 lung
[29] = test system: NCI/ADR-RES ovarian
[30] = test system: OVCAR-3 ovarian
[31] = test system: OVCAR-4 ovarian
[32] = test system: OVCAR-5 ovarian
[33] = test system: PC-3 prostate
[34] = test system: RPMI-8226 leukemia
[35] = test system: RXF 393 renal
[36] = test system: SF-268 CNS
[37] = test system: SF-295 CNS
[38] = test system: SF-539 CNS
[39] = test system: SK-MEL-2 melanoma
[40] = test system: SK-MEL-28 melanoma
[41] = test system: SK-MEL-5 melanoma
[42] = test system: SK-OV-3 ovarian
[43] = test system: SN12C renal
[44] = test system: SNB-19 CNS
[45] = test system: SNB-75 CNS
[46] = test system: SW-620 colon
[47] = test system: T-47D breast
[48] = test system: TK-10 renal
[49] = test system: UACC-257 melanoma
[50] = test system: UACC-62 melanoma
[51] = test system: OVCAR-8 ovarian

Which GI50 [1] does the source give for CCCCCCCC/C=C/CCCCCCCC1=NC(C)(C)CN1C(C)(C)CO here?
The GI50 was 1.64 µM.

And the TGI [1]?
The TGI was 3.12 µM.

And the GI50 [2]?
Its GI50 is 11.5 µM.

What about the TGI [2] of the same molecule?
Its TGI is 25.7 µM.

And the GI50 [3]?
Its GI50 is 1.87 µM.

And the TGI [3]?
Its TGI is 3.82 µM.

What about the GI50 [4] of the same molecule?
The GI50 was 1.81 µM.

What about the TGI [4] of the same molecule?
Its TGI is 3.52 µM.

What about the GI50 [5] of the same molecule?
The GI50 was 11.3 µM.

What about the TGI [5] of the same molecule?
The TGI was 24.1 µM.

And the GI50 [6]?
Its GI50 is 1.39 µM.

What about the TGI [6] of the same molecule?
The TGI was 2.88 µM.

What about the GI50 [7] of the same molecule?
Its GI50 is 3.04 µM.

And the TGI [7]?
Its TGI is 11.4 µM.

And the GI50 [8]?
Its GI50 is 1.88 µM.

What about the TGI [8] of the same molecule?
Its TGI is 3.42 µM.

What about the GI50 [9] of the same molecule?
Its GI50 is 1.86 µM.

What about the TGI [9] of the same molecule?
Its TGI is 3.32 µM.

What about the GI50 [10] of the same molecule?
The GI50 was 1.53 µM.

What about the TGI [10] of the same molecule?
The TGI was 4.36 µM.

And the GI50 [11]?
The GI50 was 1.65 µM.

What about the TGI [11] of the same molecule?
The TGI was 3.04 µM.

And the GI50 [12]?
Its GI50 is 1.52 µM.

What about the TGI [12] of the same molecule?
The TGI was 2.9 µM.

What about the GI50 [13] of the same molecule?
The GI50 was 2.23 µM.

What about the TGI [13] of the same molecule?
The TGI was 5.5 µM.

What about the GI50 [14] of the same molecule?
The GI50 was 1.76 µM.

What about the TGI [14] of the same molecule?
Its TGI is 3.28 µM.

And the GI50 [15]?
The GI50 was 1.84 µM.

And the TGI [15]?
The TGI was 3.9 µM.

And the GI50 [16]?
The GI50 was 1.45 µM.

And the TGI [16]?
The TGI was 3.38 µM.

What about the GI50 [17] of the same molecule?
Its GI50 is 2.12 µM.

What about the TGI [17] of the same molecule?
The TGI was 5.48 µM.

And the GI50 [18]?
Its GI50 is 1.97 µM.

And the TGI [18]?
Its TGI is 3.45 µM.

And the GI50 [19]?
Its GI50 is 1.61 µM.

And the TGI [19]?
The TGI was 2.98 µM.

And the GI50 [20]?
The GI50 was 1.78 µM.

And the TGI [20]?
The TGI was 3.22 µM.

And the GI50 [21]?
Its GI50 is 1.82 µM.

What about the TGI [21] of the same molecule?
The TGI was 3.43 µM.

And the GI50 [22]?
The GI50 was 1.6 µM.

What about the TGI [22] of the same molecule?
Its TGI is 3.77 µM.

What about the GI50 [23] of the same molecule?
The GI50 was 1.72 µM.

What about the TGI [23] of the same molecule?
Its TGI is 3.26 µM.

What about the GI50 [24] of the same molecule?
The GI50 was 2.62 µM.

And the TGI [24]?
Its TGI is 5.81 µM.

What about the GI50 [25] of the same molecule?
The GI50 was 2.87 µM.

And the TGI [25]?
The TGI was 7.61 µM.

And the GI50 [26]?
Its GI50 is 1.77 µM.

What about the TGI [26] of the same molecule?
Its TGI is 3.46 µM.

And the GI50 [27]?
The GI50 was 1.81 µM.

What about the TGI [27] of the same molecule?
Its TGI is 3.31 µM.

And the GI50 [28]?
The GI50 was 1.83 µM.

What about the TGI [28] of the same molecule?
Its TGI is 3.7 µM.

What about the GI50 [29] of the same molecule?
Its GI50 is 2.1 µM.

What about the TGI [29] of the same molecule?
Its TGI is 4.81 µM.

What about the GI50 [30] of the same molecule?
Its GI50 is 1.74 µM.

And the TGI [30]?
Its TGI is 3.13 µM.

What about the GI50 [31] of the same molecule?
Its GI50 is 2.12 µM.

And the TGI [31]?
The TGI was 4.4 µM.

And the GI50 [32]?
Its GI50 is 2.15 µM.

What about the TGI [32] of the same molecule?
The TGI was 5.09 µM.

And the GI50 [33]?
Its GI50 is 1.83 µM.

What about the TGI [33] of the same molecule?
The TGI was 4.92 µM.

What about the GI50 [34] of the same molecule?
Its GI50 is 2.55 µM.

And the TGI [34]?
The TGI was 5.68 µM.

And the GI50 [35]?
Its GI50 is 2.17 µM.

And the TGI [35]?
The TGI was 3.99 µM.

And the GI50 [36]?
The GI50 was 2.01 µM.

And the TGI [36]?
The TGI was 3.84 µM.

What about the GI50 [37] of the same molecule?
Its GI50 is 1.81 µM.

What about the TGI [37] of the same molecule?
Its TGI is 3.52 µM.

What about the GI50 [38] of the same molecule?
Its GI50 is 1.68 µM.

And the TGI [38]?
Its TGI is 3.34 µM.

And the GI50 [39]?
The GI50 was 1.76 µM.

What about the TGI [39] of the same molecule?
The TGI was 3.67 µM.

And the GI50 [40]?
Its GI50 is 1.79 µM.

What about the TGI [40] of the same molecule?
Its TGI is 3.18 µM.

And the GI50 [41]?
The GI50 was 1.75 µM.

And the TGI [41]?
Its TGI is 3.13 µM.

What about the GI50 [42] of the same molecule?
The GI50 was 14.4 µM.

And the TGI [42]?
Its TGI is 29.3 µM.

And the GI50 [43]?
Its GI50 is 2.25 µM.

And the TGI [43]?
The TGI was 6.67 µM.

And the GI50 [44]?
The GI50 was 2.39 µM.

And the TGI [44]?
Its TGI is 6.55 µM.

What about the GI50 [45] of the same molecule?
The GI50 was 1.89 µM.

What about the TGI [45] of the same molecule?
Its TGI is 5.77 µM.

What about the GI50 [46] of the same molecule?
Its GI50 is 1.63 µM.

And the TGI [46]?
Its TGI is 3.11 µM.

And the GI50 [47]?
The GI50 was 3.39 µM.

And the TGI [47]?
Its TGI is 11.8 µM.

And the GI50 [48]?
Its GI50 is 2.61 µM.

And the TGI [48]?
Its TGI is 7.46 µM.

What about the GI50 [49] of the same molecule?
The GI50 was 1.76 µM.

What about the TGI [49] of the same molecule?
The TGI was 3.54 µM.

And the GI50 [50]?
Its GI50 is 1.82 µM.

What about the TGI [50] of the same molecule?
Its TGI is 3.47 µM.

Which results are given for COc1cccc(-c2cc(C(=O)Nc3ccc(/C=C/c4ccc(OC5CCN(C)CC5)cc4)cc3)ccc2OC)c1?
GI50 [2]: 1.39 µM; TGI [2]: 3.8 µM; GI50 [6]: 10.6 µM; TGI [6]: 45.6 µM; GI50 [7]: 1.93 µM; TGI [7]: 5.14 µM; GI50 [11]: 1.83 µM; TGI [11]: 3.32 µM; GI50 [25]: 2.07 µM; TGI [25]: 5.04 µM; GI50 [51]: 1.96 µM; TGI [51]: 4.59 µM; GI50 [34]: 2.18 µM; TGI [34]: 5.15 µM; GI50 [42]: 2.1 µM; TGI [42]: 5.13 µM; GI50 [47]: 1.7 µM; TGI [47]: 4.98 µM

— PubChem BioAssay (NCI)
